From patent US6517839B1, “Methods for inducing interleukin-12 and a type1/Th1 T-cell response” (priority 1997, dated 2003)

Tested on: THP-1 cells
Test: IL-12 p40 release from THP-1 cells, measured by ELISA of 20 h supernatants
Assay type: cell-based, human
Details: for IL-12 p40 release: Example 7, FIG. 10, THP-1 20 h

Row | Substance | IL-12 p40 release (monocyte Western blot) (Example 4, FIG. 7, solubilized gel regions of Rotofor fraction #4, average of four experiments) | IL-12 p40 release
1 | 38 kDa lipoprotein: M. tuberculosis 38 kDa lipoprotein antigen; migrates as 39 kDa band | some contribution | –
2 | recombinant 19 kDa expressed in E. coli: recombinant form of the M. tuberculosis 19 kDa antigen expressed in E. coli | – | failed to induce any IL-12 p40
3 | recombinant 19 kDa expressed in M. vaccae: recombinant form of the M. tuberculosis 19 kDa antigen expressed in a mycobacterial system, M. vaccae | – | stimulated IL-12 p40 release in an equivalent manner
